The values below come from ChEMBL document CHEMBL1165994, “Leucoridines A-D, cytotoxic Strychnos-Strychnos bisindole alkaloids from Leuconotis” (J Nat Prod, 2010).

One experiment has as its system KB. In words: Cytotoxicity against human KB cells after 3 days by MTT assay. It counts as functional, cell-based. Conditions: 72 h.
A short description of experiment [1]: Cytotoxicity against human KB/VJ300 cells after 3 days by MTT assay. Type of experiment: functional, cell-based. Conditions: KB/VJ300, 72 h. (In general: Tetrazolium dyes change colour on reduction, which living cells bring about.)

Each structure is given as a SMILES string. In brackets after ≈: the same amount, converted by molar mass.

One may read the IC50 as the midpoint of a concentration-inhibition curve. Higher therefore signals a need for much substance. `CC[C@@H]1CN2CC[C@@]34C5=C(C[C@]6(CN5c5ccccc53)C3=Nc5ccccc5[C@@]35CCN3C[C@@H](CC)[C@@H]6C[C@H]35)[C@H]1C[C@H]24` [LEUCORIDINE A]: the IC50 with KB was found to be 0.57 µg/mL (≈ 1.02 µM); in experiment [1] it was 2.39 µg/mL (≈ 4.29 µM).

With `CCC1=CN2CC[C@@]34C(=Nc5ccccc53)[C@@]3(CC5=C6N(C3)c3ccccc3[C@@]63CCN6C[C@@H](CC)[C@@H]5C[C@H]63)[C@H]1C[C@H]24` [LEUCORIDINE B], the figures for the IC50 (in the experiment with KB; in experiment [1]) were 11.6 µg/mL (≈ 20.9 µM) and 12 µg/mL (≈ 21.7 µM), respectively.

Consider `CC[C@@H]1CN2CC[C@@]34C5=C(C[C@]6(CN5c5ccccc53)C(=O)[C@@]3(c5ccccc5N)CCN5C[C@@H](CC)[C@@H]6C[C@H]53)[C@H]1C[C@H]24` [LEUCORIDINE C], for which the IC50 in the experiment with KB came out at 10.9 µg/mL (≈ 19 µM); in experiment [1] it was 11.8 µg/mL (≈ 20.5 µM).

`C=C1[C@H]2C[C@@H]3N(CC[C@@]34c3cccc(C[C@@H]5C6=Nc7ccccc7[C@@]67CCN6C[C@@H](CC)[C@@H]5C[C@H]67)c3N[C@@H]14)C[C@H]2CC` [LEUCORIDINE D]: the values for the concentration for half-maximal inhibition (IC50) (in the experiment with KB; in experiment [1]) were 12.5 µg/mL (≈ 22.4 µM) and 13.3 µg/mL (≈ 23.8 µM), respectively.
